Article PMC8151848, “Tambjamines and Prodiginines: Biocidal Activity against Trypanosoma cruzi” (Pharmaceutics, 2021)
Where two headings read alike, the source gives them in different places.

Columns and labels:
[1] = tested on: trypomastigotes/amastigotes of T. cruzi (CLB strain); assay: Trypomastigote/amastigote susceptibility assay in infected L-929 fibroblasts; assay type: cell-based, Trypanosoma cruzi; details: for IC50: read-out: IC50 (µM) trypomastigote/amastigote growth inhibition, CLB strain, 96 h treatment
Experimental: This assay was performed in 96-well microplates. Briefly, 4 × 10^3 L-929 fibroblasts were seeded in 80 µl of MEM containing 10% FBS and antibiotics. The plate was placed overnight at 37 °C in a 5% CO2 humidified incubator to allow cell adherence. Afterward, the cells were infected with 20 µL of trypomastigotes (40,000 trypomastigotes/well (4000 mammalian cells)) diluted in the same medium. The cell:parasite ratio was 1:10. Plates were incubated for 2 h at 33 °C and 5% CO2. The medium was then discarded to dispose of nonpenetrated parasites and replaced with 200 µL of MEM without phenol red supplemented with FBS and antibiotics. After 48 h of incubation, the content of the wells was replaced with a fresh medium containing the dilutions of the compounds. The plates were returned to the incubator for an additional 96 h under the same conditions. Wells containing drug blanks, medium, fibroblasts, and untreated infected cells were included in all the plates as controls. An internal control of the reference drug (benznidazole) was also included. Next, 50 µl of substrate CPRG (diluted in 3% Triton X-100 solution) were added at a final concentration of 400 µM. After 18–20 h of incubation at 37 °C, absorbance readings were taken at 595 nm using a scanning multiwell spectrophotometer. All the assays were performed in triplicate and the experiments were run three times in different weeks. The results are expressed as the percentage of trypomastigote/amastigote growth inhibition (% T/A GI value) as follows:(2) %Trypomastigote/Amastigote growth inhibition=100−(AE−AEB)/(AC−ACB) ×100 where AE is the absorbance of the experimental group, AEB the absorbance of the compound blank, AC the absorbance of the control group, and ACB the absorbance of the culture medium blank. The IC50 values (the drug concentration that eliminates 50% of the parasites) were determined for each compound using the GraphPad Prism software.

[2] = tested on: epimastigotes of T. cruzi; assay: Epimastigote susceptibility assay (combined therapy with benznidazole); assay type: cell-based, Trypanosoma cruzi; details: combination of benznidazole with compound at 0.25x IC50
Experimental: To assess the anti-epimastigote effect of the compounds in combination with benznidazole, fixed concentrations of each compound were added to a 96-well microplate previously filled with serial dilutions of benznidazole (0.06–128 µM). These fixed concentrations were calculated based on the IC50 values previously obtained for each drug and corresponded to 4x IC50, 2x IC50, IC50, 0.75x IC50, 0.5x IC50, 0.25x IC50. Each well was inoculated with 100 µL of the epimastigotes (2.5 × 10^5/mL) obtained from the exponential growth phase and the plates were incubated for 72 h at 28 °C. Drug blanks, medium, and growth wells were included in each assay as controls. Afterward, 50 µL of CPRG diluted in 0.9% Triton X-100 solution were added at a final concentration of 200 µM and the plates were returned to the incubator for another 3 h at 37 °C. After incubation, absorbance was read at 595 nm and the data were analyzed. All experiments were repeated at least two times independently and each combination was tested in duplicate.
The results are expressed as the IC50 values obtained with each drug combination. To evaluate the interaction of benznidazole with these compounds, fractional inhibitory concentration (FIC) values were calculated as follows:
FIC of compound A (FIC A) = IC50 of A in combination/IC50 of A alone; while FIC of compound B (FIC B) = IC50 of B in combination/IC50 of B alone.
Finally, the FIC index (FICi) was calculated as the sum of FICs using the following formula: FICi=FIC A+FIC B
FICi values were interpreted according to the criteria established by Simoes-Silva et al.: FICi ≤ 0.5 indicates synergism; FICi > 0.5 and ≤ 4 indicates an additive interaction (no interaction); and FICi > 4 indicates antagonism.

[3] = Cytotoxicity assay (resazurin) in L-929 fibroblasts; assay type: cell-based, mouse; details: mouse, L-929, 16 µM, n = 9, read-out: % Cytotoxicity ± SD
Description: Mouse L-929 fibroblasts (NCTC clone 929, ECACC 88102702) were used for both drug toxicity and infection assays. Cell line was obtained from Dr. Concepció Soler, Dept. Pathology & Experimental therapeutics, Faculty of Medicine and Health Sciences, University of Barcelona, Spain. Human hepatocarcinoma Hep G2 cells (American Type Culture Collection (ATCC HB-8065)) were employed only in the drug toxicity assays and were obtained from Dr. Neus Agell, Cell Biology Research Group, Faculty of Medicine and Health Sciences, University of Barcelona, Spain.
Cells were seeded by trypsinization in 96-well microplates (L-929: 4 × 10^3 cells/well; Hep G2: 1.5 × 10^4 cells/well) and incubated for 24 h at 37 °C to allow cell attachment. On the following day, the medium was discarded and replaced with a fresh medium containing the different concentrations of the drugs. Hep G2 cells were treated with concentrations of 100, 10, and 1 µM of the different drugs, while L-929 cells were treated with a wider range of concentrations in order to calculate the IC50 value (the drug concentration that inhibits 50% of cell growth). Medium, growth, and drug blanks were used in each test as controls. Plates were incubated again for another 24 h. After treatment, 20 µL of resazurin diluted in 1X phosphate-buffered saline (PBS; Sigma Aldrich) was added at a final concentration of 70 µM. The plates were incubated for another 24 h, after which fluorescence was measured in a microplate reader (FLUOstar OPTIMA, BMG LABTECH GmbH, Ortenberg, Germany) at an excitation wavelength of 530 nm and an emission wavelength of 590 nm. Each concentration was tested in triplicate and the experiments were repeated three times independently. Results indicated the percentage of toxicity (% T value). (3) % Toxicity=100−(AE−AEB)/(AC−ACB)×100 where AE is the absorbance of the experimental group, AEB the absorbance of the drug blank, AC the absorbance of the untreated cells, and ACB the absorbance of the culture medium blank. For the L-929 fibroblasts, the IC50 values (the drug concentration that inhibits 50% of cell growth) were calculated for each compound using the GraphPad Prism software.

[4] = IC50 for L-929 fibroblasts / IC50 for T. cruzi trypomastigotes/amastigotes
[5] = Trypanosoma cruzi, L929, highest concentration assayed (16 µM), n = 9, read-out: % Trypomastigote/Amastigote Growth Inhibition (%T/A GI ± SD)
[6] = L-929 fibroblasts (NCTC clone 929)

SMILES	Selectivity index (SI), Trypomastigotes [1, 4]	inhibition at 16 µM ([1]; Trypanosoma cruzi, L929, read-out: % Trypomastigote/Amastigote Growth Inhibition (%T/A GI ± SD)) [%]	IC50 [1] [µM]	FICi [2]	% Trypomastigote/Amastigote Growth Inhibition (%T/A GI ± SD) ([1]; highest concentration assayed (16 µM), n = 9) [%]	cytotoxicity at 24 h, 16 µM [3] [%]	Selectivity index (SI), Trypomastigotes [1]	IC50 ([1]; Trypanosoma cruzi, L929) [µM]	inhibition at 16 µM [1, 5] [%]	cytotoxicity at 24 h, 16 µM [3, 6] [%]
CCCCCC1=C/C(=C/c2[nH]c(-c3ccc[nH]3)cc2OC)N=C1C [Synthetic prodigiosin, prodigiosin]	5.36	100	0.57 ± 0.19	0.73						
CCCCCC1=C/C(=C/c2[nH]c(-c3ccc[nH]3)cc2OC)N=C1C [Natural prodigiosin, prodigiosin]	50		0.1 ± 0.04	0.81	100 ± 0	95.8 ± 0.09				
COC1=CC(c2cc3ccccc3[nH]2)=N/C1=C\c1[nH]c(C)cc1C [Obatoclax, reference compound]				1.80			2.24	2.6 ± 0.4	88.4 ± 6	63.5 ± 1.63
CCc1c(-c2ccc[nH]2)[nH]c(/C=N/C2CCCCC2)c1C [MM3]	6.42			0.79				1.9 ± 0.45	97.1 ± 3.01	88.4 ± 2.75
O=C(Cn1ccnc1[N+](=O)[O-])NCc1ccccc1 [Benznidazole, reference compound]	779.71							1.76 ± 0.34	76 ± 5.02	0
CCc1c(-c2ccc[nH]2)[nH]c(/C=N/c2ccc(C(C)(C)C)cc2)c1C [MM4]				0.70						64.2 ± 10.5
